Patent US9833497B2, “Human originated EGF domain proteins and use of the same” (CHENGDU SOURCEBIO LIMITED-LIABILITY COMPANY, priority 2013, dated 2017)

Assays:
Assay type in all cases: cell-based
Aeromonas hydrophila = assay: MIC against Gram-negative bacteria: Aeromonas hydrophila; conditions: 10 h cultivation at 37° C., 5×10^5 CFU/mL, two-fold serial dilution
Method in brief: (§1)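 Bacteria grown in LB at 37° C to McFarland 0.5, resuspended and seeded at 5×10^5 CFU/mL in 96-well plates. Purified human EGF-domain proteins two-fold serially diluted, triplicate wells; cultured at 37° C, shaking 175 rpm. MIC = lowest protein concentration with no growth.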

Serratia marcescens = assay: MIC against Gram-negative bacteria: Serratia marcescens; conditions: 10 h cultivation at 37° C., 5×10^5 CFU/mL, two-fold serial dilution
Method in brief: as §1

Citrobacter diversus = assay: MIC against Gram-negative bacteria: Citrobacter diversus; conditions: 10 h cultivation at 37° C., 5×10^5 CFU/mL, two-fold serial dilution
Method in brief: as §1

Proteus vulgaris = assay: MIC against Gram-negative bacteria: Proteus vulgaris; conditions: 10 h cultivation at 37° C., 5×10^5 CFU/mL, two-fold serial dilution
Method in brief: as §1

E. coli BL21 = assay: MIC against Gram-negative bacteria: E. coli BL21; conditions: 10 h cultivation at 37° C., 5×10^5 CFU/mL, two-fold serial dilution
Method in brief: as §1

Proteus mirabilis = assay: MIC against Gram-negative bacteria: Proteus mirabilis; conditions: 10 h cultivation at 37° C., 5×10^5 CFU/mL, two-fold serial dilution
Method in brief: as §1

Klebsiella pneumonia = assay: MIC against Gram-negative bacteria: Klebsiella pneumonia; conditions: 10 h cultivation at 37° C., 5×10^5 CFU/mL, two-fold serial dilution
Method in brief: as §1

Moraxella catarrhalis = assay: MIC against Gram-negative bacteria: Moraxella catarrhalis; conditions: 10 h cultivation at 37° C., 5×10^5 CFU/mL, two-fold serial dilution
Method in brief: as §1

Enterobacter cloacae = assay: MIC against Gram-negative bacteria: Enterobacter cloacae; conditions: 10 h cultivation at 37° C., 5×10^5 CFU/mL, two-fold serial dilution
Method in brief: as §1

Pseudomonas aeruginosa = assay: MIC against Gram-negative bacteria: Pseudomonas aeruginosa; conditions: 10 h cultivation at 37° C., 5×10^5 CFU/mL, two-fold serial dilution
Method in brief: as §1

E. coli DH5α = assay: Antibacterial activity: MIC and growth curve against E. coli DH5α in 96-well plate; conditions: minimal inhibitory concentration against E. coli DH5α; 96-well plate, 5×10^5 CFU/mL, 37° C., judged after 8 h
Method in brief: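 MIC taken as lowest protein level with no bacterial growth, tracked by A600 every 30 min during 37 °C, 175 rpm culture. Two-fold protein series 50-12.5 μg/mL final, triplicate wells, against 5×10^5 CFU/mL of LB-washed mid-log cells.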

Row | Substance | MIC A. hydrophila (Aeromonas hydrophila) [µg/mL] | MIC S. marcescens (Serratia marcescens) [µg/mL] | MIC C. diversus (Citrobacter diversus) [µg/mL] | MIC P. vulgaris (Proteus vulgaris) [µg/mL] | MIC E. coli BL21 (E. coli BL21) [µg/mL] | MIC P. mirabilis (Proteus mirabilis) [µg/mL] | MIC K. pneumonia (Klebsiella pneumonia) [µg/mL] | MIC M. catarrhalis (Moraxella catarrhalis) [µg/mL] | MIC E. cloacae (Enterobacter cloacae) [µg/mL] | MIC P. aeruginosa (Pseudomonas aeruginosa) [µg/mL] | MIC (E. coli DH5α) [µg/mL]
1 | PRT1069 (VTNPCDRKKCEWLCLLSPSGPVCTCPNGKRLDNGTCV; listed as Homo sapiens) | 12.5 | 25 | 50 | 25 | 50 | 12.5 | 25 | 25 | 50 | 12.5 | 12.5
2 | PRT1070 (RPGTCNLQCFNGGSCFLNARRQPKCRCQPRYTGDKCE; listed as Homo sapiens) | 12.5 | 12.5 | 12.5 | 12.5 | 12.5 | 12.5 | 12.5 | 12.5 | 25 | 25 | 25
3 | PRT1071 (ELDQCWEHCRNGGTCAASPSGMPTCRCPTGFTGPKCT; listed as Homo sapiens) | 25 | 12.5 | 12.5 | 50 | 25 | 12.5 | 25 | 50 | 50 | 12.5 | 50
4 | PRT1072 (TQQVCAGYCANNSTCTVNQGNQPQCRCLPGFLGDRCQ; listed as Homo sapiens) | 12.5 | 12.5 | 50 | 12.5 | 12.5 | 12.5 | 25 | 12.5 | 50 | 12.5 | 50
5 | PRT1074 (QYRQCSGYCENFGTCQMAADGSRQCRCTAYFEGSRCE; listed as Homo sapiens) | 12.5 | 12.5 | 12.5 | 12.5 | 12.5 | 12.5 | 12.5 | 12.5 | 12.5 | 50 | 50
6 | PRT1075 (EVNKCSRCLEGACVVNKQSGDVTCNCTDGRVAPSCL; listed as Homo sapiens) | 25 | 50 | 50 | 12.5 | 12.5 | 50 | 50 | 25 | 25 | 25 | 25
7 | PRT1076 (SCLTCVGHCSNGGSCTMNSKMMPECQCPPHMTGPRCE; listed as Homo sapiens) | 12.5 | 25 | 12.5 | 12.5 | 25 | 25 | 25 | 12.5 | 12.5 | 12.5 | 12.5
8 | PRT1077 (RSHACENDQYGKPGGCSDICLLANSHKARTCRCRSGFSLGSDGKSCK; listed as Homo sapiens) | 25 | 12.5 | 25 | 50 | 12.5 | 25 | 50 | 25 | 25 | 12.5 | 12.5
9 | PRT1078 (GTNKCRVNNGGCSSLCLATPGSRQCACAEDQVLDADGVTCL; listed as Homo sapiens) | 50 | 12.5 | 12.5 | 50 | 50 | 12.5 | 12.5 | 50 | 25 | 25 | 25
10 | PRT1079 (DQCSLNNGGCSHNCSVAPGEGIVCSCPLGMELGPDNHTCQ; listed as Homo sapiens) | 12.5 | 12.5 | 50 | 50 | 12.5 | 50 | 12.5 | 12.5 | 50 | 50 | 50
11 | PRT1080 (IQSYCAKHLKCSQKCDQNKFSVKCSCYEGWVLEPDGESCR; listed as Homo sapiens) | 12.5 | 50 | 12.5 | 25 | 25 | 12.5 | 25 | 12.5 | 50 | 12.5 | 50
12 | PRT1081 (APNPCEANGGQGPCSHLCLINYNRTVSCACPHLMKLHKDNTTCY; listed as Homo sapiens) | 12.5 | 12.5 | 50 | 50 | 12.5 | 25 | 12.5 | 12.5 | 50 | 50 | 25
13 | PRT1082 (GTNPCSVNNGDCSQLCLPTSETTRSCMCTAGYSLRSGQQACE; listed as Homo sapiens) | 12.5 | 25 | 25 | 12.5 | 12.5 | 25 | 50 | 50 | 25 | 25 | 50
14 | PRT1083 (GTNVCAVANGGCQQLCLYRGRGQRACACAHGMLAEDGASCR; listed as Homo sapiens) | 25 | 25 | 12.5 | 50 | 12.5 | 25 | 50 | 50 | 50 | 50 | 50
